Measurements taken from patent US10800782B2, “Inhibitors of cellular metabolic processes” (Agios Pharmaceuticals, Inc., priority 2016, dated 2020).
pIC50: −log10 of the molar value.

Biological target: T1, MAT2A (Homo sapiens, UniProt P31153)
T1 construct: His6; made in house; host or cells: SF9 insect cells
Test: MAT2A biochemical assay (colorimetric inorganic phosphate detection, PiColorLock)
Settings: recombinant His6-tagged MAT2A 1 μg/ml; 60 minutes preincubation at 25° C.; L-Met 80 μM, ATP 100 μM; 60 minutes reaction; read at 623 nm; read-out: MAT2A Inhibition Score
How it was run: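 His6-tagged human MAT2A (SF9-expressed, 1 μg/ml) converting L-Met and ATP to SAM in Tris pH 8.0, 50 mM KCl, 15 mM MgCl2, 300 uM EDTA, 0.005% BSA; 60 min at room temperature. Released phosphate detected colorimetrically with malachite green phosphomolybdate. Ten-point, three-fold compound dilution series.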

T1 sequence (P31153 whole entry): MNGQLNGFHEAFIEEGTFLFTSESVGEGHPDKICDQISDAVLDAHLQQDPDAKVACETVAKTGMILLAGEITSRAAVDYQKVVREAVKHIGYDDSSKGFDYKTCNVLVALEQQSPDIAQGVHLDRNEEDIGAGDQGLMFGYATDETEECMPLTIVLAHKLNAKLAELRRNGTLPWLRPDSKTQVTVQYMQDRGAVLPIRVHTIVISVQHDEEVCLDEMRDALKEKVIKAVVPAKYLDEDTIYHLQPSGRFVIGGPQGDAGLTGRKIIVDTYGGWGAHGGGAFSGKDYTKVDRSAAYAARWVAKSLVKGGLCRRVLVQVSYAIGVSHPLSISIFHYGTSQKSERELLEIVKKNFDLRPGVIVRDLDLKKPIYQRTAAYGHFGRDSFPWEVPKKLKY

| pIC50 | Compound |
| --- | --- |
| 6.00 to 7.00 | O=C1CN(Cc2[nH]c3c(-c4ccccc4)c(-c4ccccc4)nn3c(=O)c2-c2ccc3ncccc3c2)C(=O)N1 [Compound 323, 1-((7-oxo-2,3-diphenyl-6-(quinolin-6-yl)-4,7-dihydropyrazolo[1,5-a]pyrimidin-5-yl)methyl)imidazolidine-2,4-dione] |
| > 7.00 | COc1ccc(-c2c(Nc3ncc(C#N)cn3)[nH]c3c(-c4ccccc4)c(-c4ccccc4)nn3c2=O)cc1 [Compound 115, 2-(6-(4-methoxyphenyl)-7-oxo-2,3-diphenyl-4,7-dihydropyrazolo[1,5-a]pyrimidin-5-ylamino)pyrimidine-5-carbonitrile] |
| > 7.00 | CNCc1[nH]c2c(-c3ccccc3)c(-c3ccccc3)nn2c(=O)c1-c1ccc2ncccc2c1 [Compound 278, 5-((methylamino)methyl)-2,3-diphenyl-6-(quinolin-6-yl)pyrazolo[1,5-a]pyrimidin-7(4H)-one] |
| > 7.00 | COc1ccc(-c2c(Nc3cc(C#N)ccn3)[nH]c3c(-c4ccccc4)c(-c4ccccc4)nn3c2=O)cc1 [Compound 114, 2-(6-(4-methoxyphenyl)-7-oxo-2,3-diphenyl-4,7-dihydropyrazolo[1,5-a]pyrimidin-5-ylamino)isonicotinonitrile] |
| > 7.00 | Cc1[nH]c2c(-c3ccccc3)c(-c3ccccc3)nn2c(=O)c1-c1ccc2nc(CN)sc2c1 [Compound 253, 6-(2-(aminomethyl)benzo[d]thiazol-6-yl)-5-methyl-2,3-diphenylpyrazolo[1,5-a]pyrimidin-7(4H)-one] |
| > 7.00 | COc1ccc(-c2c(Nc3cc[nH]n3)[nH]c3c(-c4ccccc4)c(-c4ccccc4)nn3c2=O)cc1 [Compound 182, 5-((1H-pyrazol-3-yl)amino)-6-(4-methoxyphenyl)-2,3-diphenylpyrazolo[1,5-a]pyrimidin-7(4H)-one] |
| > 7.00 | Cc1[nH]c2c(-c3ccccc3)c(-c3ccc(O)cc3)nn2c(=O)c1-c1ccc2ncccc2c1 [Compound 242, 2-(4-hydroxyphenyl)-5-methyl-3-phenyl-6-(quinolin-6-yl)pyrazolo[1,5-a]pyrimidin-7(4H)-one] |
| 5.00 to 6.00 | O=c1c(-c2ccc3ncccc3c2)cn(CCn2cnnn2)c2c(-c3ccccc3)c(-c3ccccc3)nn12 [Compound 352, 4-(2-(1H-tetrazol-1-yl)ethyl)-2,3-diphenyl-6-(quinolin-6-yl)pyrazolo[1,5-a]pyrimidin-7(4H)-one] |
| 6.00 to 7.00 | Cc1[nH]c2c(N3CCCCC3)c(-c3ccccc3)nn2c(=O)c1N1CCC(O)CC1 [Compound 311, 6-(4-hydroxypiperidin-1-yl)-5-methyl-2-phenyl-3-(piperidin-1-yl)pyrazolo[1,5-a]pyrimidin-7(4H)-one] |
| > 7.00 | O=c1c(-c2ccc3c(c2)NCCO3)c(Nc2ccccn2)[nH]c2c(-c3ccccc3)c(-c3ccccc3)nn12 [Compound 197, 6-(3,4-dihydro-2H-benzo[b][1,4]oxazin-6-yl)-2,3-diphenyl-5-(pyridin-2-ylamino) pyrazolo[1,5-a]pyrimidin-7(4H)-one] |
| > 7.00 | CN1CCOc2ccc(-c3c(Nc4ccccn4)[nH]c4c(-c5ccccc5)c(-c5ccccc5)nn4c3=O)cc21 [Compound 198, 6-(4-methyl-3,4-dihydro-2H-benzo[b][1,4]oxazin-6-yl)-2,3-diphenyl-5-(pyridin-2-ylamino)pyrazolo[1,5-a]pyrimidin-7(4H)-one] |
| > 7.00 | Cc1[nH]c2c(C3=CCCCC3)c(-c3ccccc3)nn2c(=O)c1-c1ccc(O)cc1 [Compound 240, 3-(cyclohex-1-en-1-yl)-6-(4-hydroxyphenyl)-5-methyl-2-phenylpyrazolo[1,5-a]pyrimidin-7(4H)-one] |
| > 7.00 | COc1ccc(-c2c(Nc3ccccn3)[nH]c3c(-c4ccccc4)c(-c4ccccc4)nn3c2=O)cc1 [Compound 102, 6-(4-methoxyphenyl)-2,3-diphenyl-5-(pyridin-2-ylamino)pyrazolo[1,5-a]pyrimidin-7(4H)-one] |
| 6.00 to 7.00 | Cc1[nH]c2c(N3CCC(F)(F)C3)c(-c3ccccc3)nn2c(=O)c1-c1ccc2ncccc2c1 [Compound 316, 3-(3,3-difluoropyrrolidin-1-yl)-5-methyl-2-phenyl-6-(quinolin-6-yl)pyrazolo[1,5-a]pyrimidin-7(4H)-one] |
| > 7.00 | O=c1c(-c2ccc3c(c2)OCCO3)c(CO)[nH]c2c(C3=CCCCC3)c(-c3ccccc3)nn12 [Compound 225, 3-(cyclohex-1-en-1-yl)-6-(2,3-dihydrobenzo[b][1,4]dioxin-6-yl)-5-(hydroxymethyl)-2-phenylpyrazolo[1,5-a]pyrimidin-7(4H)-one] |
| > 7.00 | Cc1[nH]c2c(-c3ccccc3)c(-c3ccccc3)nn2c(=O)c1-c1ccc2c(c1)OCCO2 [Compound 211, 6-(2,3-dihydrobenzo[b][1,4]dioxin-6-yl)-5-methyl-2,3-diphenylpyrazolo[1,5-a]pyrimidin-7(4H)-one] |
| > 7.00 | O=C(NCc1[nH]c2c(-c3ccccc3)c(-c3ccccc3)nn2c(=O)c1-c1ccc2ncccc2c1)C(F)(F)F [Compound 263, 2,2,2-trifluoro-N-((7-oxo-2,3-diphenyl-6-(quinolin-6-yl)-4,7-dihydropyrazolo[1,5-a]pyrimidin-5-yl)methyl)acetamide] |
| > 7.00 | COc1ccc(-c2c(Nc3ncns3)[nH]c3c(C4=CCCCC4)c(-c4ccccc4)nn3c2=O)cc1 [Compound 166, 5-((1,2,4-thiadiazol-5-yl)amino)-3-(cyclohex-1-en-1-yl)-6-(4-methoxyphenyl)-2-phenylpyrazolo[1,5-a]pyrimidin-7(4H)-one] |
| 5.00 to 6.00 | COc1ccc(-c2c(Oc3cccnn3)[nH]c3c(-c4ccccc4)c(-c4ccccc4)nn3c2=O)cc1 [Compound 354, 6-(4-methoxyphenyl)-2,3-diphenyl-5-(pyridazin-3-yloxy)pyrazolo[1,5-a]pyrimidin-7(4H)-one] |
| > 7.00 | Cc1nc2ccc(-c3c(Nc4ccccn4)[nH]c4c(-c5ccccc5)c(-c5ccccc5)nn4c3=O)cc2s1 [Compound 196, 6-(2-methylbenzo[d]thiazol-6-yl)-2,3-diphenyl-5-(pyridin-2-ylamino)pyrazolo[1,5-a]pyrimidin-7(4H)-one] |
| > 7.00 | COc1ccc(-c2c(O)[nH]c3c(C4=CCCCC4)c(-c4ccccc4)nn3c2=O)cc1 [Compound 279, 3-(cyclohex-1-en-1-yl)-5-hydroxy-6-(4-methoxyphenyl)-2-phenylpyrazolo[1,5-a]pyrimidin-7(4H)-one] |
| 5.00 to 6.00 | Cc1[nH]c2c(N3CCCCC3)c(-c3ccccc3)nn2c(=O)c1-c1cscn1 [Compound 310, 5-methyl-2-phenyl-3-(piperidin-1-yl)-6-(thiazol-4-yl)pyrazolo[1,5-a]pyrimidin-7(4H)-one] |
| > 7.00 | COc1ccc(-c2c(Nc3ncccn3)[nH]c3c(-c4ccccc4)c(-c4ccccc4)nn3c2=O)cc1 [Compound 121, 6-(4-methoxyphenyl)-2,3-diphenyl-5-(pyrimidin-2-ylamino)pyrazolo[1,5-a]pyrimidin-7(4H)-one] |
| 6.00 to 7.00 | Cc1[nH]c2c(-c3ccccc3)c(-c3ccccc3)nn2c(=O)c1C1=CCC(=O)CC1 [Compound 336, 5-methyl-6-(4-oxocyclohex-1-en-1-yl)-2,3-diphenylpyrazolo[1,5-a]pyrimidin-7(4H)-one] |
| > 7.00 | COc1ccc(-c2c(Nc3ccn(COC(=O)[C@@H](N)C(C)C)n3)[nH]c3c(-c4ccccc4)c(-c4ccccc4)nn3c2=O)cc1 [Compound 201, (S)-(3-((6-(4-methoxyphenyl)-7-oxo-2,3-diphenyl-4,7-dihydropyrazolo[1,5-a]pyrimidin-5-yl)amino)-1H-pyrazol-1-yl)methyl 2-amino-3-methylbutanoate] |
| 6.00 to 7.00 | Cc1[nH]c2c(-c3ccccc3)c(-c3ccccc3)nn2c(=O)c1-c1ccc2nccnc2c1 [Compound 331, 5-methyl-2,3-diphenyl-6-(quinoxalin-6-yl)pyrazolo[1,5-a]pyrimidin-7(4H)-one] |
| 6.00 to 7.00 | Cc1c(-c2ccc3ncccc3c2)c(=O)n2nc(-c3ccccc3)c(-c3ccccc3)c2n1C [Compound 318, 4,5-dimethyl-2,3-diphenyl-6-(quinolin-6-yl)pyrazolo[1,5-a]pyrimidin-7(4H)-one] |
